Data on 9 molecules can be found in ChEMBL document CHEMBL1131101, “2-, 5-, and 6-Halo-3-(2(S)-azetidinylmethoxy)pyridines: synthesis, affinity for nicotinic acetylcholine receptors, and molecular modeling” (J Med Chem, 1998).

The structures appear in SMILES notation.

A word on the Ki: it is the dissociation constant of the complex between target and ligand, obtained from inhibition or displacement. Low values mean higher affinity, high ones lower affinity.

Chain of Neuronal acetylcholine receptor; alpha4/beta2 (P09483 whole entry): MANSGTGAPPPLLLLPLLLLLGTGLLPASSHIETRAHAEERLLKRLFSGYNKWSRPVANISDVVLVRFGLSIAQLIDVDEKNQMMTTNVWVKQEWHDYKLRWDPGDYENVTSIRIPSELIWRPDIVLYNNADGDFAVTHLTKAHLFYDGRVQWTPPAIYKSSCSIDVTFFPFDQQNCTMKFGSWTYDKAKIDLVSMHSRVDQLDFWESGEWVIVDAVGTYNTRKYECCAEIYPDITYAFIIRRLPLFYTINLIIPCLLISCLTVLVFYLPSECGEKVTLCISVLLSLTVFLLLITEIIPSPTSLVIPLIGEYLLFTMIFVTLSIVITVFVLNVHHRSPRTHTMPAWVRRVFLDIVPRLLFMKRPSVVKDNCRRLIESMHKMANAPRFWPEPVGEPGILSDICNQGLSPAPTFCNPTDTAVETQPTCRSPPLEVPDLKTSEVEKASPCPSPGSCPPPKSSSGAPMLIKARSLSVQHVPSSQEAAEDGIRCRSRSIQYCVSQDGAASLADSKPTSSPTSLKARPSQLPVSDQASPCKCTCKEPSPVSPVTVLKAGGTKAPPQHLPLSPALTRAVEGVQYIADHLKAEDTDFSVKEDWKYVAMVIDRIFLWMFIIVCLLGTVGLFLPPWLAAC
Chain of Neuronal acetylcholine receptor; alpha4/beta2 (P12390 whole entry): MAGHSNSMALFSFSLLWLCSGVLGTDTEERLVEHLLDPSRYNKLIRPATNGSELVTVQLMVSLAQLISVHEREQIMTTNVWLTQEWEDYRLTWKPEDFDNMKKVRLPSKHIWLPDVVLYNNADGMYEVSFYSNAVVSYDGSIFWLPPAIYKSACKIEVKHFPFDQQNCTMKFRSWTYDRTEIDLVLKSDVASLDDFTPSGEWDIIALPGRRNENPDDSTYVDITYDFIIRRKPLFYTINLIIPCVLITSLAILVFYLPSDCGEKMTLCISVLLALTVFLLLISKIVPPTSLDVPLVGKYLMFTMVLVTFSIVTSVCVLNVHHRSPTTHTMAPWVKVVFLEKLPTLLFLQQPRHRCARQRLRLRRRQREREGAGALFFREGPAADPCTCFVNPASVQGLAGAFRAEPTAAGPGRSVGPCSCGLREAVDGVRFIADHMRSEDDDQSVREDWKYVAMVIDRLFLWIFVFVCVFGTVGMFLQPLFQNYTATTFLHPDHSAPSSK

The assay has as its target Neuronal acetylcholine receptor; alpha4/beta2 (Rattus norvegicus, UniProt P09483+P12390). Briefly: Binding affinity for alpha4 beta-2 nAChR using [3H]epibatidine in rat brain. In kind it is tissue-based.
`Ic1ncccc1OC[C@@H]1CCN1` gave a Ki greater than 0.001 nM. As for `Ic1ccc(OC[C@@H]2CCN2)cn1`, the Ki turned out to be 0.15 nM. Consider `Brc1ncccc1OC[C@@H]1CCN1`, for which the Ki stood at 0.24 nM. `Fc1ccc(OC[C@@H]2CCN2)cn1` registered a Ki of 0.025 nM.

The molecule `c1cncc(OC[C@@H]2CCN2)c1` returned a Ki of 0.017 nM. Molecule `Clc1ncccc1OC[C@@H]1CCN1` returned a Ki of 0.0084 nM. This Ki lies about 2-fold lower than the previous one. The molecule `Clc1cncc(OC[C@@H]2CCN2)c1` displayed a Ki of 0.03 nM.

For the molecule `Fc1cncc(OC[C@@H]2CCN2)c1`, affinity was put at a Ki of 0.025 nM. The Ki values of the last two molecules are within 1.5-fold of each other. Consider `Brc1cncc(OC[C@@H]2CCN2)c1`, for which the Ki came out at 0.021 nM.
